How the values were obtained:
[1] = target: T1, Protein cereblon/Tyrosine-protein kinase BTK (Homo sapiens, UniProt Q06187+Q96SW2); assay: PROTAC activity at CRBN/BTK in human TMD8 cells assessed as degradation of BTK protein incubated for 4 hrs by HTRF assay; format: cell-based
Target sequence in this assay (Q06187 whole entry): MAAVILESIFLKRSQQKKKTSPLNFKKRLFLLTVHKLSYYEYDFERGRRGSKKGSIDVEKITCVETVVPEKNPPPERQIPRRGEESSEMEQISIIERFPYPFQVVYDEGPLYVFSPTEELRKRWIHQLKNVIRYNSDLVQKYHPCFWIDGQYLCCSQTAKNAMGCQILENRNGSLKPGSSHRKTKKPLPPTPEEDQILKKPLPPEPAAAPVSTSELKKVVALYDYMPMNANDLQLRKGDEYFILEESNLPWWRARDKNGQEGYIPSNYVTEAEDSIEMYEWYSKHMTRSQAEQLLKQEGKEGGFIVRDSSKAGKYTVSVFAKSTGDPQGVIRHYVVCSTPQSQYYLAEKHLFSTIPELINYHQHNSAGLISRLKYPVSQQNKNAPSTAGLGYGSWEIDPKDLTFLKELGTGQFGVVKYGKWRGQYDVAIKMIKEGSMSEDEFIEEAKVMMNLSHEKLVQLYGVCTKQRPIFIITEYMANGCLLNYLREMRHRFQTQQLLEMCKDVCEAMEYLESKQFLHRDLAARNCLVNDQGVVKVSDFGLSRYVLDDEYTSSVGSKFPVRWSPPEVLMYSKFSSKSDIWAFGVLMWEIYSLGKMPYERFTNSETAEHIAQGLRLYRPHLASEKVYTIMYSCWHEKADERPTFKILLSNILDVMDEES
Target sequence in this assay (Q96SW2 whole entry): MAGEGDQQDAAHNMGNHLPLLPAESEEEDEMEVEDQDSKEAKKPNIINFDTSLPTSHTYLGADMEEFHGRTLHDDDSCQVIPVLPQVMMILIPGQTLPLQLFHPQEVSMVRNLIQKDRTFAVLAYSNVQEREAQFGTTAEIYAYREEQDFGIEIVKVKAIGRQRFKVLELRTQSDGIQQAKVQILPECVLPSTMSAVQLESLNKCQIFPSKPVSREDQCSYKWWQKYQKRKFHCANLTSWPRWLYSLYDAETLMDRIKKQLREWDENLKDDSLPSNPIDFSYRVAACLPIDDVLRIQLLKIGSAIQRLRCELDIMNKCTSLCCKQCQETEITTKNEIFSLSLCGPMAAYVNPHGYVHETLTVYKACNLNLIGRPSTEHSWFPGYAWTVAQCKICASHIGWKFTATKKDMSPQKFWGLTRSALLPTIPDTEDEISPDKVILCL

[2] = target: T1, Protein cereblon/Tyrosine-protein kinase BTK; assay: PROTAC activity at CRBN/BTK in human TMD8 cells assessed as maximal degradation of BTK protein incubated for 4 hrs by HTRF assay relative to control; format: cell-based
Target sequence in this assay (Q06187 2-659 limits assumed): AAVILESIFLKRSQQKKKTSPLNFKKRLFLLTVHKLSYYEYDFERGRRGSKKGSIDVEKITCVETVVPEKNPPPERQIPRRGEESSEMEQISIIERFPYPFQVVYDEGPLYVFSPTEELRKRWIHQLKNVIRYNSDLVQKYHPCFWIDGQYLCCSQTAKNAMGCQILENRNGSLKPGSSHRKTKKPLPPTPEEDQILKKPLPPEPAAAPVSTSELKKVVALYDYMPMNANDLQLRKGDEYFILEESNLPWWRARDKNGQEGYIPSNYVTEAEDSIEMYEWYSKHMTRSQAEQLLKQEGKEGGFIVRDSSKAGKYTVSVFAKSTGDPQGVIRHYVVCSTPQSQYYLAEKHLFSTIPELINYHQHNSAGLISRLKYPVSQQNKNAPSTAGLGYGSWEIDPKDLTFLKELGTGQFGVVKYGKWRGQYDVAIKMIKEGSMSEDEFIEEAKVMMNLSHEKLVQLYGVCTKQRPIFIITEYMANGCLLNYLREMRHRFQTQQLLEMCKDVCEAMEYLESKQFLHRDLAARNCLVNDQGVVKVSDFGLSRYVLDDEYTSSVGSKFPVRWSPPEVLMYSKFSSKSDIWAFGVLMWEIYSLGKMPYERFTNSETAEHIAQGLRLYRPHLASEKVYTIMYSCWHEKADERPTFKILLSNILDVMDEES
Target sequence in this assay (Q96SW2 whole entry partner): as the sequence (Q96SW2 whole entry) above

[3] = target: T2, Protein cereblon/Tyrosine-protein kinase BTK (Mus musculus) (UniProt P35991+Q8C7D2); assay: In vivo protac activity at CRBN/BTK in BALB/c mouse assessed as remaining BTK protein in splenocyte at 3 mg/kg,po administration measured after 6 hrs by HTRF assay relative to control; format: functional, organism-based
T2 sequence (P35991 whole entry, looked up): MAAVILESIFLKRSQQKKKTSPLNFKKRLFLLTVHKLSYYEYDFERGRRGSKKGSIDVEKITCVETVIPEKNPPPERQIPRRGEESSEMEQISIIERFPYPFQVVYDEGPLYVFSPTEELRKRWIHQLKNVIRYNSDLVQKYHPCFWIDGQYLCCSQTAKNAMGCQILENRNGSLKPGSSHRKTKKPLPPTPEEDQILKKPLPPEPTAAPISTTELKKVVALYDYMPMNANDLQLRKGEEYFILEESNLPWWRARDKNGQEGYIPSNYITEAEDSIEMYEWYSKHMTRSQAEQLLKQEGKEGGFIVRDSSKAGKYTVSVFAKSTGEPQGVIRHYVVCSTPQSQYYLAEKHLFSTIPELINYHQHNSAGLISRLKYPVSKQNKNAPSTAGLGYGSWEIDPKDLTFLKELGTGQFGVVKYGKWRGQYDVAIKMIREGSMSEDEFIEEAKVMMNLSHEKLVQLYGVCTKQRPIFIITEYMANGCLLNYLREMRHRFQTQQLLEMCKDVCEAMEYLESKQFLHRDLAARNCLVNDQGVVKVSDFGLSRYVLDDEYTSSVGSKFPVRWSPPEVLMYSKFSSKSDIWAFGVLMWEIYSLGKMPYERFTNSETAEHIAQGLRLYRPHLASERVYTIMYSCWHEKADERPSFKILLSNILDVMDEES
T2 sequence (Q8C7D2 whole entry, looked up): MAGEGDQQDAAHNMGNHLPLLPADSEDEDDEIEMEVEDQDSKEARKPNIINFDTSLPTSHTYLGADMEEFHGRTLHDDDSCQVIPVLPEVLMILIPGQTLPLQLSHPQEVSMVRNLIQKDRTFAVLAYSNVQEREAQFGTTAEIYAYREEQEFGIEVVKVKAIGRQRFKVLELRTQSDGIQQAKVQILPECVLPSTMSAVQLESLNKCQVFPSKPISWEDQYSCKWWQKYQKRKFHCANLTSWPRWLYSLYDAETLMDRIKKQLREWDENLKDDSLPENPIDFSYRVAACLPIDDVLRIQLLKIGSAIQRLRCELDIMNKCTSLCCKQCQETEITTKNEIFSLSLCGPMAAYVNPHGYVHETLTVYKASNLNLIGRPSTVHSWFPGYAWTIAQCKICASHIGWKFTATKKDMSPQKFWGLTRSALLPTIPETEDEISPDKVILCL

[4] = target: T1, Protein cereblon/Tyrosine-protein kinase BTK; assay: PROTAC activity at CRBN/BTK in human Ramos cells assessed as degradation of BTK protein incubated for 4 hrs by HTRF assay; format: cell-based
Target sequence in this assay (Q06187 whole entry): as the sequence (Q06187 whole entry) above
Target sequence in this assay (Q96SW2 whole entry): as the sequence (Q96SW2 whole entry) above

[5] = target: T1, Protein cereblon/Tyrosine-protein kinase BTK; assay: PROTAC activity at CRBN/BTK in human Ramos cells assessed as maximal degradation of BTK protein incubated for 4 hrs by HTRF assay relative to control; format: cell-based
Target sequence in this assay (Q06187 2-659 limits assumed): as the sequence (Q06187 2-659 limits assumed) above
Target sequence in this assay (Q96SW2 whole entry partner): as the sequence (Q96SW2 whole entry) above

[6] = target: T3, Protein cereblon/Zinc finger protein Aiolos (Homo sapiens, UniProt Q96SW2+Q9UKT9); assay: PROTAC activity at CRBN/IKZF3 in human T cell assessed as degradation of IKZF3 protein incubated for 24 hrs by flow cytometry; format: cell-based
Target sequence in this assay (Q96SW2 whole entry): as above
Target sequence in this assay (Q9UKT9 whole entry): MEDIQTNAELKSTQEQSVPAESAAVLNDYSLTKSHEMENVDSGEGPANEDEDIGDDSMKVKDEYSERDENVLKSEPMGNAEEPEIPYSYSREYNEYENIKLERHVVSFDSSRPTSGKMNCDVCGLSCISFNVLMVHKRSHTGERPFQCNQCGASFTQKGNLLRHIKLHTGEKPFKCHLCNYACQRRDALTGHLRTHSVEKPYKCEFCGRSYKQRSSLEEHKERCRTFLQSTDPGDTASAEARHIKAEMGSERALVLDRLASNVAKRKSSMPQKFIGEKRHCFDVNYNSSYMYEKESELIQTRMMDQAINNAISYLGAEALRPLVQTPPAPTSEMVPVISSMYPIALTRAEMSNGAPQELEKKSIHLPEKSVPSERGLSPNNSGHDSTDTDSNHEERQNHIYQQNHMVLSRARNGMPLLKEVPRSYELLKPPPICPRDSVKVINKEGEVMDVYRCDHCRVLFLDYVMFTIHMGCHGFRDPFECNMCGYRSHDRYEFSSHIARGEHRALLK

[7] = target: T3, Protein cereblon/Zinc finger protein Aiolos; assay: PROTAC activity at CRBN/IKZF3 in human T cell assessed as maximal degradation of IKZF3 protein incubated for 24 hrs by flow cytometry relative to control; format: cell-based
Target sequence in this assay (Q96SW2 whole entry, looked up): as the sequence (Q96SW2 whole entry) above
Target sequence in this assay (Q9UKT9 whole entry, looked up): as the sequence (Q9UKT9 whole entry) above

[8] = target: T2, Protein cereblon/Tyrosine-protein kinase BTK (Mus musculus); assay: In vivo protac activity at CRBN/BTK in BALB/c mouse assessed as remaining BTK protein in blood at 3 mg/kg,po administration measured after 6 hrs by flow cytomtery relative to control; format: functional, organism-based

Work on `CN1CCN([C@@H]2CCCN(c3cnc(C(N)=O)c(Nc4ccc(C5CCN(Cc6ccc7c(c6)C(=O)N(C6CCC(=O)NC6=O)C7=O)CC5)cc4)n3)C2)C1=O` (some centres not stated) yielded a DC50 [1] of 17 nM and an Emax [2] of 76%.
`CN1CCN([C@@H]2CCCN(c3cnc(C(N)=O)c(Nc4ccc(C5(C)CCN(C[C@H]6CCN(c7ccc8c(c7)C(=O)N(C7CCC(=O)NC7=O)C8=O)C6)CC5)cc4)n3)C2)C1=O` (some centres not stated) was tested, and the DC50 [1] was 0.6 nM, the Emax [2] was 96% and the Activity [3] was 27%.
For `CN1CCN([C@@H]2CCCN(c3cnc(C(N)=O)c(Nc4ccc(C5CCN(C[C@H]6CC[C@H](Nc7cccc8c7C(=O)N(C7CCC(=O)NC7=O)C8=O)CC6)CC5)cc4)n3)C2)C1=O` (some centres not stated), the DC50 [4] was 1.6 nM, the Emax [5] was 90% and the DC50 [6] was 40 nM. The Emax [7] was 85%.
In the case of `CN1CCN([C@@H]2CCCN(c3cnc(C(N)=O)c(Nc4ccc(N5CC6(C5)CN(c5ccc7c(c5)C(=O)N(C5CCC(=O)NC5=O)C7=O)C6)cc4)n3)C2)C1=O` (some centres not stated), the DC50 [4] was 0.9 nM, the Emax [5] was 94% and the DC50 [1] was 0.8 nM. For the same molecule, the Emax [2] was 97%, the DC50 [6] was 14 nM and the Emax [7] was 83%.
`Nc1ncnc2c1c(-c1ccc(Oc3ccccc3)cc1)nn2C1CCN(C(=O)CCOCCOCCOCCOCCOCCNc2cccc3c2C(=O)N(C2CCC(=O)NC2=O)C3=O)CC1` (configuration not stated) gave a DC50 [4] of 32 nM and an Emax [5] of 88%.
Molecule `CN1CCN([C@@H]2CCCN(c3cnc(C(N)=O)c(Nc4ccc(C5CN(C6CCN(c7ccc8c(c7)C(=O)N(C7CCC(=O)NC7=O)C8=O)CC6)C5)cc4)n3)C2)C1=O` (some centres not stated) has a DC50 [4] of 0.9 nM, an Emax [5] of 95% and a DC50 [1] of 0.53 nM. It also gave an Emax [2] of 96%, a DC50 [6] of 28 nM and an Emax [7] of 79%. For the same molecule, the Activity [8] was 26%.
`CN1CCN([C@@H]2CCCN(c3cnc(C(N)=O)c(Nc4ccc(C5CCN(CC6CCN(c7ccc8c(c7)C(=O)N(C7CCC(=O)NC7=O)C8=O)CC6)CC5)cc4)n3)C2)C1=O` (some centres not stated) gave a DC50 [4] of 0.75 nM, an Emax [5] of 94% and a DC50 [6] of 28 nM. For the same molecule, the Emax [7] was 74%.
In the case of `Cn1cc(-c2ccnc(-n3ncc4cc(C(C)(C)C)cc(F)c4c3=O)c2CO)cc(Nc2cc3n(n2)CCN(C(=O)CCOCCCc2cccc4c2CN(C2CCC(=O)NC2=O)C4=O)C3)c1=O` (configuration not stated), the DC50 [4] was 50 nM and the Emax [5] was 79%.
For `CN1CCN([C@@H]2CCCN(c3cnc(C(N)=O)c(Nc4ccc(C5CCN(C(=O)CCOCCNc6cccc7c6C(=O)N(C6CCC(=O)NC6=O)C7=O)CC5)cc4)n3)C2)C1=O` (some centres not stated), the DC50 [4] was 6.3 nM, the Emax [5] was 80% and the Emax [7] was 99%.
Work on `CN1CCN([C@@H]2CCCN(c3cnc(C(N)=O)c(Nc4cnn(C5CCN(CC6CCN(c7ccc8c(c7)C(=O)N(C7CCC(=O)NC7=O)C8=O)CC6)CC5)c4)n3)C2)C1=O` (some centres not stated) yielded a DC50 [1] of 0.63 nM, an Emax [2] of 96% and an Activity [8] of 48%.
`CN1CCN([C@@H]2CCCN(c3cnc(C(N)=O)c(Nc4ccc(C5CCN(C[C@@H]6CCN(c7ccc8c(c7)C(=O)N(C7CCC(=O)NC7=O)C8=O)C6)CC5)cc4)n3)C2)C1=O` (some centres not stated) was tested, and the DC50 [4] was 1.2 nM and the Emax [5] was 93%.
With `CN1CCN([C@@H]2CCCN(c3cnc(C(N)=O)c(Nc4ccc(C5CCN(C[C@H]6CC[C@@H](Nc7cccc8c7C(=O)N(C7CCC(=O)NC7=O)C8=O)CC6)CC5)cc4)n3)C2)C1=O` (some centres not stated) the DC50 [4] was 7 nM, the Emax [5] was 88% and the DC50 [6] was over 2000 nM. It also gave an Emax [7] of 31%.
With `CN1CCN([C@@H]2CCCN(c3cnc(C(N)=O)c(Nc4ccc(N5CCC6(CC5)CCN(c5ccc7c(c5)C(=O)N(C5CCC(=O)NC5=O)C7=O)CC6)cc4)n3)C2)C1=O` (some centres not stated) the DC50 [4] was 0.9 nM, the Emax [5] was 96% and the DC50 [1] was 1.3 nM. The Emax [2] was 96% and the Activity [3] was 18%.

— ChEMBL document CHEMBL5344441, “Discovery and Preclinical Pharmacology of NX-2127, an Orally Bioavailable Degrader of Bruton's Tyrosine Kinase with Immunomodulatory Activity for the Treatment of Patients with B Cell Malignancies” (J Med Chem, 2024)
